Measured values taken from patent US9393221B2, “Methods and compounds for reducing intracellular lipid storage” (THE GENERAL HOSPITAL CORPORATION, priority 2011, dated 2016).
Where a name gives a salt, the structure may show the parent alone.

What follows are compounds tested on ATGL-KO iPSCs (assay: High throughput iPSC chemical screening, Oil Red O (ORO) lipid accumulation). Conditions: glycolytic switch compounds.
Assay type: cell-based, mouse
Wherever Z-score is given: test concentration or dose not given here.

Question: For `CC1=CC(=O)c2ccccc2C1=O` [Menadione], which “Rank in normalized ORO score from screen” value is on record?
Answer: 517

Question: `CSc1ccc2c(c1)C(N1CCN(C)CC1)Cc1ccccc1S2.O=C(O)/C=C\C(=O)O` (stereo not drawn) [Methiothepin maleate] was tested. Which “Rank in normalized ORO score from screen” value did it give?
Answer: 658

Same assay, conditions: normalized ORO level vs DMSO-treated cells; compound present during 7 days differentiation, 96-well; negative = decrease in lipid accumulation

Question: For `CC[C@@H](C(=O)[C@@H](C)[C@@H](O)[C@H](C)CCc1ccc(C)c(O)c1C(=O)O)[C@H]1O[C@](CC)([C@H]2CC[C@](O)(CC)[C@H](C)O2)C[C@@H]1C` [Lasalocid sodium salt], which Z-score is on record?
Answer: 9.898

Question: How did the Z-score turn out when `Cc1oncc1C(=O)Nc1ccc(C(F)(F)F)cc1` [Leflunomide] was run?
Answer: 1.258

Question: With `N#Cc1ccc(C(c2ccc(C#N)cc2)n2cncn2)cc1` [Letrozole] as the compound, how does the Z-score read?
Answer: 0.6693

Question: Which Z-score does the source give for `CC1=CC(=O)C2=C(C)CC[C@@H]3[C@H](OC(=O)[C@H]3C)[C@@H]12` [Leucomisine] here?
Answer: −0.2458

Question: For `c1ccc([C@H]2CN3CCSC3=N2)cc1` [Levamisole hydrochloride], which Z-score is on record?
Answer: −0.8539

Question: How did the Z-score turn out when `C[C@@H]1CN([C@H]2CC[C@](C#N)(c3ccc(F)cc3)CC2)CC[C@]1(C(=O)O)c1ccccc1` [Levocabastine hydrochloride] was run?
Answer: 1.078

Question: With `N[C@@H](Cc1ccc(O)c(O)c1)C(=O)O` [Levodopa] as the compound, how does the Z-score read?
Answer: −0.1655

Question: With `C[C@H](N)[C@H](O)c1ccc(O)c(O)c1` [Levonordefrin] as the compound, how does the Z-score read?
Answer: −0.1555

Question: `CCC(=O)O[C@@](Cc1ccccc1)(c1ccccc1)[C@@H](C)CN(C)C` [Levopropoxyphene napsylate] was tested. Which Z-score did it give?
Answer: −1.0896

Question: `CCN(CC)CC(=O)Nc1c(C)cccc1C.Cl` [LidocaOne hydrochloride] was tested. Which Z-score did it give?
Answer: −0.9429

Question: Which Z-score does the source give for `Cc1cccc(C)c1NC(=O)CN1CCN(CCCC(c2ccc(F)cc2)c2ccc(F)cc2)CC1` [Lidoflazine] here?
Answer: 1.42

Question: With `CCC[C@@H]1C[C@@H](C(=O)N[C@@H]([C@H]2O[C@H](SC)[C@H](O)[C@@H](O)[C@H]2O)[C@@H](C)O)N(C)C1` [Lincomycin hydrochloride] as the compound, how does the Z-score read?
Answer: 0.696

Question: With `N[C@@H](Cc1cc(I)c(Oc2ccc(O)c(I)c2)c(I)c1)C(=O)O` [Liothyronine] as the compound, how does the Z-score read?
Answer: 0.1954

Question: `NCCCC[C@H](N[C@@H](CCc1ccccc1)C(=O)O)C(=O)N1CCC[C@H]1C(=O)O` [Lisinopril] was tested. Which Z-score did it give?
Answer: 0.5403

Question: `CCN(CC)C(=O)N[C@H]1C=C2c3cccc4[nH]cc(c34)C[C@H]2N(C)C1` [Lisuride (S)(−)] was tested. Which Z-score did it give?
Answer: −0.7927

Question: How did the Z-score turn out when `C[C@H](CCC(=O)O)[C@H]1CC[C@H]2[C@@H]3CC[C@@H]4C[C@H](O)CC[C@]4(C)[C@H]3CC[C@]12C` [Lithocholic acid] was run?
Answer: 0.8022

Question: How did the Z-score turn out when `CN1[C@@H](C[C@@H](O)c2ccccc2)CCC[C@H]1C[C@H](O)c1ccccc1.Cl` [Lobelanidine hydrochloride] was run?
Answer: −0.6306

Question: `CN1[C@@H](CC(=O)c2ccccc2)CCC[C@H]1C[C@H](O)c1ccccc1.Cl` [Lobeline alpha (−) hydrochoride] was tested. Which Z-score did it give?
Answer: −0.5438

Question: For `CCn1cc(C(=O)O)c(=O)c2cc(F)c(N3CCNC(C)C3)c(F)c21` (stereo not drawn) [Lomefloxacin hydrochloride], which Z-score is on record?
Answer: 0.00477

Question: Which Z-score does the source give for `CN(C)C(=O)C(CCN1CCC(O)(c2ccc(Cl)cc2)CC1)(c1ccccc1)c1ccccc1` [Loperamide hydrochloride] here?
Answer: −0.1814

Question: Which Z-score does the source give for `N[C@@H](C(=O)N[C@@H]1C(=O)N2C(C(=O)O)=C(Cl)CC[C@H]12)c1ccccc1` [Loracarbef] here?
Answer: 0.6457

Question: For `CCCCCN(CCCCC)C(=O)C(CCC(=O)O)NC(=O)c1ccc(Cl)c(Cl)c1` (stereo not drawn) [Lorglumide sodium salt], which Z-score is on record?
Answer: −1.7664

Question: For `CC[C@H](C)C(=O)O[C@H]1C[C@@H](C)C=C2C=C[C@H](C)[C@H](CC[C@@H]3C[C@@H](O)CC(=O)O3)[C@H]21` [Lovastatin], which Z-score is on record?
Answer: 6.935

Question: With `CN1CCN(C2=Nc3ccccc3Oc3ccc(Cl)cc32)CC1` [Loxapine succinate] as the compound, how does the Z-score read?
Answer: −0.6976

Question: `COC1=C[C@@H]2C3=C([C@@H]2C1=O)[C@@H](NC(C)=O)CCc1cc(OC)c(OC)c(OC)c13` [Lumicolchicine gamma] was tested. Which Z-score did it give?
Answer: 0.6596

Question: How did the Z-score turn out when `O=c1cc(-c2ccc(O)c(O)c2)oc2cc(O)cc(O)c12` [Luteolin] was run?
Answer: −1.0098

Question: `CN(C)[C@@H]1C(O)=C(C(=O)NCNCCCC[C@H](N)C(=O)O)C(=O)[C@@]2(O)C(O)=C3C(=O)c4c(O)cccc4[C@@](C)(O)[C@H]3C[C@@H]12` [Lymecycline] was tested. Which Z-score did it give?
Answer: −1.3365

Question: `C#C[C@]1(O)CC[C@H]2[C@@H]3CCC4=CCCC[C@@H]4[C@H]3CC[C@@]21C` [Lynestrenol] was tested. Which Z-score did it give?
Answer: −1.3181

Question: How did the Z-score turn out when `CN1C[C@H](CO)C=C2c3cccc4[nH]cc(c34)C[C@H]21` [Lysergol] was run?
Answer: −0.3809

Question: With `NCc1ccc(S(N)(=O)=O)cc1` [Mafenide hydrochloride] as the compound, how does the Z-score read?
Answer: 0.8468

Question: For `CNCCCC12CCC(c3ccccc31)c1ccccc12` [Maprotiline hydrochloride], which Z-score is on record?
Answer: 0.03741

Question: Which Z-score does the source give for `COC(=O)Nc1nc2ccc(C(=O)c3ccccc3)cc2[nH]1` [Mebendazole] here?
Answer: 49.935

Question: With `CCN(CCCCOC(=O)c1ccc(OC)c(OC)c1)C(C)Cc1ccc(OC)cc1` (stereo not drawn) [Mebeverine hydrochloride] as the compound, how does the Z-score read?
Answer: 0.1096

Question: For `CN1CCc2c(c3ccccc3n2Cc2ccccc2)C1.O=S(=O)(O)c1cccc2c(S(=O)(=O)O)cccc12` [Mebhydroline 1,5-naphtalenedisulfonate], which Z-score is on record?
Answer: 0.4999

Question: For `CNC1(C)C2CCC(C2)C1(C)C` (stereo not drawn) [Mecamylamine hydrochloride], which Z-score is on record?
Answer: 2.563

Question: For `C=C1c2c(Cl)ccc(O)c2C(=O)C2=C(O)[C@]3(O)C(=O)C(C(N)=O)=C(O)[C@@H](N(C)C)[C@@H]3[C@@H](O)[C@H]12.O=C(O)c1cc(S(=O)(=O)O)ccc1O` [Meclocycline sulfosalicylate], which Z-score is on record?
Answer: 8.326

Question: Which Z-score does the source give for `CN(C)CCOC(=O)COc1ccc(Cl)cc1` [Meclofenoxate hydrochloride] here?
Answer: 0.4945

Question: How did the Z-score turn out when `Cc1cccc(CN2CCN(C(c3ccccc3)c3ccc(Cl)cc3)CC2)c1` (stereo not drawn) [Meclozine dihydrochloride] was run?
Answer: 1.227

Question: With `CC(=O)[C@H]1CC[C@H]2[C@@H]3C[C@H](C)C4=CC(=O)CC[C@]4(C)[C@H]3[C@@H](O)C[C@]12C` [Medrysone] as the compound, how does the Z-score read?
Answer: −0.1611

Question: How did the Z-score turn out when `Cc1cccc(Nc2ccccc2C(=O)O)c1C` [Mefenamic acid] was run?
Answer: −0.2407

Question: How did the Z-score turn out when `CCN(CC)CCNC(=O)COc1ccc(OC)cc1` [Mefexamide hydrochloride] was run?
Answer: −0.2169

Question: For `CC(=O)O[C@]1(C(C)=O)CC[C@H]2[C@@H]3C=C(C)C4=CC(=O)CC[C@]4(C)[C@H]3CC[C@@]21C` [Megestrol acetate], which Z-score is on record?
Answer: 1.362

Question: `CNC[C@H](O)[C@@H](O)[C@H](O)[C@H](O)CO` [Meglumine] was tested. Which Z-score did it give?
Answer: −1.1536

Question: For `COc1ccc2[nH]cc(CCNC(C)=O)c2c1` [Melatonin], which Z-score is on record?
Answer: 0.08162

Question: For `CC12CC3CC(C)(C1)CC(N)(C3)C2` [Memantine Hydrochloride], which Z-score is on record?
Answer: −1.2487

Question: How did the Z-score turn out when `CC1=CC(=O)c2ccccc2C1=O` [Menadione] was run?
Answer: −0.29

Question: Which Z-score does the source give for `C[N+]1(C)CCCC(OC(=O)C(O)(c2ccccc2)c2ccccc2)C1` (stereo not drawn) [Mepenzolate bromide] here?
Answer: −0.115

Question: For `Cc1ccccc1OCC(O)CO` (stereo not drawn) [Mephenesin], which Z-score is on record?
Answer: −0.9401

Question: With `CCC1(c2ccccc2)NC(=O)N(C)C1=O` (stereo not drawn) [Mephenytoin] as the compound, how does the Z-score read?
Answer: 0.8864

Question: For `CCCNC(C)(C)COC(=O)c1ccccc1` [Meprylcaine hydrochloride], which Z-score is on record?
Answer: −0.9597

Question: Which Z-score does the source give for `CCC1(c2cccc(O)c2)CCCCN(C)C1` (stereo not drawn) [Meptazinol hydrochloride] here?
Answer: −1.0631

Question: Which Z-score does the source give for `C[C@@H](O)[C@H]1C(=O)N2C(C(=O)O)=C(S[C@@H]3CN[C@H](C(=O)N(C)C)C3)[C@H](C)[C@H]12` [Meropenem] here?
Answer: 0.5806

Question: Which Z-score does the source give for `Nc1ccc(O)c(C(=O)O)c1` [Mesalamine] here?
Answer: −0.1803

Question: `CN1CCCCC1CCN1c2ccccc2Sc2ccc([S+](C)[O-])cc21` (stereo not drawn) [Mesoridazine besylate] was tested. Which Z-score did it give?
Answer: −0.5525

Question: For `C=N[C@@H](C(=O)N[C@@H]1C(=O)N2[C@@H]1SC(C)(C)[C@@H]2C(=O)O)c1ccccc1` [Metampicillin sodium salt], which Z-score is on record?
Answer: 0.638

Question: How did the Z-score turn out when `CNCC(O)c1ccc(O)c(OC)c1.Cl` (stereo not drawn) [Metanephrine hydrochloride DL] was run?
Answer: −1.0419

Question: `C[C@H](N)[C@H](O)c1cccc(O)c1` [Metaraminol bitartrate] was tested. Which Z-score did it give?
Answer: −0.9024

Question: How did the Z-score turn out when `CN1C[C@H](CNC(=O)OCc2ccccc2)C[C@@H]2c3cccc4c3c(cn4C)C[C@H]21` [Metergoline] was run?
Answer: 0.5474

Question: `CN(C)C(=N)N=C(N)N` [Metformin hydrochloride] was tested. Which Z-score did it give?
Answer: 0.7664

Question: `CC(=O)OC(C)C[N+](C)(C)C` (stereo not drawn) [Methacholine chloride] was tested. Which Z-score did it give?
Answer: −0.8044

Question: Which Z-score does the source give for `C=C1c2cccc(O)c2C(=O)C2=C(O)[C@]3(O)C(=O)C(C(N)=O)=C(O)[C@@H](N(C)C)[C@@H]3[C@@H](O)[C@H]12` [Methacycline hydrochloride] here?
Answer: 2.309

Question: With `CC[N+](C)(CC)CCOC(=O)C1c2ccccc2Oc2ccccc21` [Methantheline bromide] as the compound, how does the Z-score read?
Answer: −0.7033

Question: How did the Z-score turn out when `CN(C)CCN(Cc1cccs1)c1ccccn1` [Methapyrilene hydrochloride] was run?
Answer: −0.1861

Question: With `CC(=O)/N=c1/sc(S(N)(=O)=O)nn1C` [Methazolamide] as the compound, how does the Z-score read?
Answer: 0.06841

Question: With `COC(=O)Nc1nc2ccc(SC(C)C)cc2[nH]1` [Methiazole] as the compound, how does the Z-score read?
Answer: 19.8245

Question: `Cn1cc[nH]c1=S` [Methimazole] was tested. Which Z-score did it give?
Answer: 0.6934

Question: How did the Z-score turn out when `CS(=N)(=O)CC[C@H](N)C(=O)O` (stereo partly drawn) [Methionine sulfoximine (L)] was run?
Answer: −0.2829

Question: Which Z-score does the source give for `CSc1ccc2c(c1)C(N1CCN(C)CC1)Cc1ccccc1S2.O=C(O)/C=C\C(=O)O` (stereo not drawn) [Methiothepin maleate] here?
Answer: 0.08061

Question: With `COc1ccccc1OCC(O)COC(N)=O` (stereo not drawn) [Methocarbamol] as the compound, how does the Z-score read?
Answer: −1.1429

Question: How did the Z-score turn out when `CN(Cc1cnc2nc(N)nc(N)c2n1)c1ccc(C(=O)N[C@@H](CCC(=O)O)C(=O)O)cc1` [Methotrexate] was run?
Answer: 7.697

Question: With `COc1ccc2c(c1)N(C[C@H](C)CN(C)C)c1ccccc1S2.O=C(O)/C=C\C(=O)O` [Methotrimeprazine maleat salt] as the compound, how does the Z-score read?
Answer: 1.548

Question: `COc1ccc(OC)c(C(O)C(C)N)c1` (stereo not drawn) [Methoxamine hydrochloride] was tested. Which Z-score did it give?
Answer: 0.4239

Question: How did the Z-score turn out when `COc1ccc2[nH]c3c(c2c1)CCN=C3C` [Methoxy-6-harmalan] was run?
Answer: 1.201

Question: How did the Z-score turn out when `COc1c2occc2cc2ccc(=O)oc12` [Methoxy-8-psoralen] was run?
Answer: 1.942

Question: Which Z-score does the source give for `Cc1cc(C(C)(C)CC(C)(C)C)ccc1OCCOCC[N+](C)(C)Cc1ccccc1.[Cl-]` [Methyl benzethonium chloride] here?
Answer: 12.6356

Question: How did the Z-score turn out when `C[N+]1(C)[C@@H]2CC[C@H]1C[C@@H](OC(=O)C(CO)c1ccccc1)C2` (stereo partly drawn) [Methylatropine nitrate] was run?
Answer: −1.1494
